Values joined by “and” are separate entries in the source; they are usually repeats but may differ in a detail not shown here. Equal values may be shown once. Inconclusive results and toxic doses are left out. Cut-off read from the data, not from the text of the source: active = T/C of 150% or more; inactive = T/C below 125%.
Tested on: L1210 leukemia ip in BDF1 mice, survival T/C
Experiment: NCI In Vivo Anticancer Drug Screen. Data for tumor model L1210 Leukemia (intraperitoneal) in B6D2F1 (BDF1) mice
Conditions: endpoint: mean survival time, higher = longer survival
Outline: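 Survival endpoint. Drug-treated group vs vehicle group, expressed as T divided by C. Tumor passaged by transplantation.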

[1] = dose: 50.0 mg/kg/injection, schedule: Q01DX001 (ip), vehicle: saline
[2] = dose: 100.0 mg/kg/injection, schedule: Q01DX001 (ip), vehicle: saline
[3] = dose: 100.0 mg/kg/injection, schedule: Q04DX003 (ip), vehicle: carboxymethylcellulose (CMC)
[4] = dose: 200.0 mg/kg/injection, schedule: Q04DX003 (ip), vehicle: carboxymethylcellulose (CMC)
[5] = dose: 400.0 mg/kg/injection, schedule: Q04DX003 (ip), vehicle: carboxymethylcellulose (CMC)
[6] = dose: 100.0 mg/kg/injection, schedule: Q04DX003 (ip), vehicle: saline
[7] = dose: 200.0 mg/kg/injection, schedule: Q04DX003 (ip), vehicle: saline

Measured: T/C

Cc1ccc(S(=O)(=O)N(c2cc(C)ccc2C)c2ccccc2N)cc1
inactive: [1] 93 % of control | [2] 95 % of control | dose: 200.0 mg/kg/injection, schedule: Q01DX001 (ip), vehicle: saline 98 % of control | dose: 400.0 mg/kg/injection, schedule: Q01DX001 (ip), vehicle: saline 93 % of control

CCCCCN(CCCCC)C(=S)[S-].CCCCCN(CCCCC)C(=S)[S-].[Zn]
inactive: [3] 94 % of control | [4] 100 % of control | [5] 91 % of control

c1ccc2c(c1)[nH]c1nc3ncncc3nc12
inactive: [6] 94 % of control | [7] 88 % of control | dose: 400.0 mg/kg/injection, schedule: Q04DX003 (ip), vehicle: saline 97 % of control

COC1C(=O)CCC2(CO2)C1(O)C1(C)OC1CC=C(C)C (stereo unspecified)
inactive: dose: 50.0 mg/kg/injection, schedule: Q01DX009 (ip), vehicle: saline with Tween-80 104 % of control | dose: 100.0 mg/kg/injection, schedule: Q01DX009 (ip), vehicle: saline with Tween-80 109 % of control | [6] 106 % of control | dose: 200.0 mg/kg/injection, schedule: Q01DX009 (ip), vehicle: saline with Tween-80 87 % of control | [7] 100 % of control

O=[N+]([O-])c1cc(Br)ccc1O
inactive: [6] 100 % of control | [7] 89 % of control

O=C(O)c1nc(SCc2ccccc2)n(Cc2ccccc2)c1C(=O)O
inactive: dose: 100.0 mg/kg/injection, schedule: Q04DX002 (ip), vehicle: carboxymethylcellulose (CMC) 97 % of control and 89 % of control | [3] 94 % of control and 97 % of control | dose: 200.0 mg/kg/injection, schedule: Q04DX002 (ip), vehicle: carboxymethylcellulose (CMC) 94 % of control and 115 % of control | [4] 97 % of control and 98 % of control | dose: 400.0 mg/kg/injection, schedule: Q04DX002 (ip), vehicle: carboxymethylcellulose (CMC) 97 % of control and 87 % of control | [5] 96 % of control

OC1C(O)C(O)C2(CO2)C(O)C1O (stereo unspecified)
inactive: dose: 600.0 mg/kg/injection, schedule: Q01DX Z (ip), vehicle: saline 112 % of control

CC1(C)C2CC3C(CCC4C(=O)OC(=O)C43)C1C2 (stereo unspecified)
inactive: dose: 100.0 mg/kg/injection, schedule: Q01DX001 (ip), vehicle: Klucel (hydroxypropylcellulose) (HPC) 97 % of control | dose: 200.0 mg/kg/injection, schedule: Q01DX001 (ip), vehicle: Klucel (hydroxypropylcellulose) (HPC) 98 % of control | dose: 400.0 mg/kg/injection, schedule: Q01DX001 (ip), vehicle: Klucel (hydroxypropylcellulose) (HPC) 103 % of control

O=C(O)CCC(=O)c1ccc(Cl)cc1
inactive: dose: 6.25 mg/kg/injection, schedule: Q01DX009 (ip), vehicle: saline with Tween-80 88 % of control | dose: 12.5 mg/kg/injection, schedule: Q01DX009 (ip), vehicle: saline with Tween-80 90 % of control | dose: 25.0 mg/kg/injection, schedule: Q01DX009 (ip), vehicle: saline with Tween-80 97 % of control

Cc1ccc2c3c(c(=O)oc2c1)CCCC3
inactive: dose: 50.0 mg/kg/injection, schedule: Q01DX001 (ip), vehicle: carboxymethylcellulose (CMC) 96 % of control | dose: 100.0 mg/kg/injection, schedule: Q01DX001 (ip), vehicle: carboxymethylcellulose (CMC) 112 % of control | dose: 200.0 mg/kg/injection, schedule: Q01DX001 (ip), vehicle: carboxymethylcellulose (CMC) 100 % of control | dose: 400.0 mg/kg/injection, schedule: Q01DX001 (ip), vehicle: carboxymethylcellulose (CMC) 108 % of control

O=C(O)C(Cc1ccccc1)NC(=O)C(F)(F)F (stereo unspecified)
inactive: dose: 100.0 mg/kg/injection, schedule: Q04DX003 (ip), vehicle: other 90 % of control | dose: 200.0 mg/kg/injection, schedule: Q04DX003 (ip), vehicle: other 89 % of control

CCCCCCC(CCCCCC)CCCCCC
inactive: dose: 100.0 mg/kg/injection, schedule: Q01DX001 (ip), vehicle: saline with Tween-80 99 % of control | dose: 200.0 mg/kg/injection, schedule: Q01DX001 (ip), vehicle: saline with Tween-80 100 % of control | dose: 400.0 mg/kg/injection, schedule: Q01DX001 (ip), vehicle: saline with Tween-80 99 % of control

NC(=Nc1ccc(N=C(N)N[N+](=O)[O-])cc1)N[N+](=O)[O-]
inactive: dose: 25.0 mg/kg/injection, schedule: Q04DX002 (ip), vehicle: Klucel (hydroxypropylcellulose) (HPC) 107 % of control | dose: 50.0 mg/kg/injection, schedule: Q04DX002 (ip), vehicle: Klucel (hydroxypropylcellulose) (HPC) 96 % of control | dose: 100.0 mg/kg/injection, schedule: Q04DX002 (ip), vehicle: Klucel (hydroxypropylcellulose) (HPC) 96 % of control

COC1=NS(=O)(=O)CC(c2ccccc2)O1 (stereo unspecified)
inactive: dose: 75.0 mg/kg/injection, schedule: Q04DX003 (ip), vehicle: other 102 % of control | dose: 150.0 mg/kg/injection, schedule: Q04DX003 (ip), vehicle: other 86 % of control | dose: 300.0 mg/kg/injection, schedule: Q04DX003 (ip), vehicle: other 94 % of control

CCOc1c(CNC(=O)CCl)cc(N)cc1CNC(=O)CCl
inactive: [1] 106 % of control | [2] 111 % of control

NC(Cn1ccc(=O)c(O)c1)C(=O)O (stereo unspecified)
inactive: dose: 50.0 mg/kg/injection, schedule: Q01DX009 (ip), vehicle: saline 105 % of control | dose: 75.0 mg/kg/injection, schedule: Q04DX003 (ip), vehicle: saline 103 % of control | dose: 100.0 mg/kg/injection, schedule: Q01DX009 (ip), vehicle: saline 102 % of control | dose: 100.0 mg/kg/injection, schedule: Q04DX003 (ip), vehicle: saline with Tween-80 95 % of control | dose: 111.0 mg/kg/injection, schedule: Q01DX Z (ip), vehicle: saline 92 % of control | dose: 150.0 mg/kg/injection, schedule: Q04DX003 (ip), vehicle: saline 92 % of control | dose: 178.0 mg/kg/injection, schedule: Q01DX Z (ip), vehicle: saline 95 % of control | dose: 200.0 mg/kg/injection, schedule: Q01DX009 (ip), vehicle: saline 102 % of control | dose: 200.0 mg/kg/injection, schedule: Q04DX003 (ip), vehicle: saline with Tween-80 94 % of control | dose: 267.0 mg/kg/injection, schedule: Q01DX Z (ip), vehicle: saline 108 % of control | dose: 300.0 mg/kg/injection, schedule: Q04DX003 (ip), vehicle: saline 90 % of control | dose: 400.0 mg/kg/injection, schedule: Q01DX Z (ip), vehicle: saline 93 % of control | dose: 400.0 mg/kg/injection, schedule: Q04DX003 (ip), vehicle: saline with Tween-80 100 % of control | dose: 800.0 mg/kg/injection, schedule: Q01DX009 (ip), vehicle: saline 111 % of control

From PubChem BioAssay AID248 (DTP/NCI, 2004)
